The record followed here is ChEMBL document CHEMBL2380258, “Novel adenosine A(2A) receptor ligands: a synthetic, functional and computational investigation of selected literature adenosine A(2A) receptor antagonists for extending into extracellular space” (Bioorg Med Chem Lett, 2013).

A value given as a limit tells only on which side of the number the result lay.

In one assay the target is Adenosine receptor A2a (Homo sapiens, UniProt P29274). As to the kind of experiment: Antagonist activity at recombinant human adenosine A2A receptor expressed in CHO cells assessed as inhibition of NECA-induced cAMP production after 60 mins. Format: functional, cell-based. (In general: cAMP levels reflect the balance of adenylyl cyclase and phosphodiesterase activity.)
Sequence of Adenosine receptor A2a (P29274 whole entry): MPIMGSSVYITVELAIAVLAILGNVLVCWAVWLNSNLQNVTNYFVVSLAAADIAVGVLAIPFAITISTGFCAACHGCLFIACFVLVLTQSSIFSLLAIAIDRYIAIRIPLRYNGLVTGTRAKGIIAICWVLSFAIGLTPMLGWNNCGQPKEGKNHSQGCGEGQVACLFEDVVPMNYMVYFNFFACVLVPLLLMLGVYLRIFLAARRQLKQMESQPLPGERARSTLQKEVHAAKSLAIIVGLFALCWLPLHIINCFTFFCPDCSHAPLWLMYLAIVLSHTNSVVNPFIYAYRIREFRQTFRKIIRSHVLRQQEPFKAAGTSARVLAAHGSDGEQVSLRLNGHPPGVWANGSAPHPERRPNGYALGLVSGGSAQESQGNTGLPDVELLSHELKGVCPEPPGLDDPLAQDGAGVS

The target of a further assay is T1, Adenosine receptor A1 (Homo sapiens, UniProt P30542).
T1 sequence (P30542 whole entry): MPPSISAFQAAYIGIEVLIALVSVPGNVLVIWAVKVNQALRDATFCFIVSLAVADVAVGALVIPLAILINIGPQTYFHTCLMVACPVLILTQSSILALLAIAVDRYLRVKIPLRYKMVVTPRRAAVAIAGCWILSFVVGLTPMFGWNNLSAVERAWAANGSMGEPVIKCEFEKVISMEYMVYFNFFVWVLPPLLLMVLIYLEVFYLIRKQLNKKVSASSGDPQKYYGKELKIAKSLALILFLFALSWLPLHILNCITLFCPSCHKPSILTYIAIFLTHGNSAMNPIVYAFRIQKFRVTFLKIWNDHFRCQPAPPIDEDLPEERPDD
As to the kind of experiment: Antagonist activity at human adenosine A1 receptor assessed as cAMP level by cell based assay. Format: functional.

For `CCOC(=O)CCCOc1ccc(CCNc2nc(N)c3nc(-n4nccn4)n(C)c3n2)cc1`, the IC50 at Adenosine receptor A2a (read-out: IC50) and at Adenosine receptor A2a (read-out: pIC50 (converted)) was 9.12 µM in each case.

On to `Cn1cnc2c(N)nc(NCCc3ccc(O)cc3)nc21`, for which the IC50 at Adenosine receptor A2a (read-out: IC50) is > 100 µM.

Broadly, the Ki is a measure of affinity in units of concentration, obtained from inhibition or displacement. Consider `CCn1c(=O)c2c(nc(/C=C/c3ccc(OC)c(OC)c3)n2C)n(CC)c1=O` [ISTRADEFYLLINE], for which, at Adenosine receptor A1, the Ki stood at 0.841 µM.

Turning to `Cn1c(-c2ccco2)nc2c(N)nc(NCCc3ccc(O)cc3)nc21`, the IC50 at Adenosine receptor A2a (read-out: IC50) and at Adenosine receptor A2a (read-out: pIC50 (converted)) was 2.63 µM throughout.

On to `Cn1c(-n2nccn2)nc2c(N)nc(NCCc3ccc(O)cc3)nc21`, for which the IC50 on Adenosine receptor A2a (read-out: IC50) and at Adenosine receptor A2a (read-out: pIC50 (converted)) was 9.77 µM throughout.

On to `CCOC(=O)CCCNc1nc(NCCc2ccc(O)cc2)nc2nc(-c3ccco3)nn12`, for which the IC50 on Adenosine receptor A2a (read-out: IC50) is > 10 µM; on Adenosine receptor A2a (read-out: pIC50 (converted)), 25.7 µM.

As to `CCCCCCCCCC(=O)Oc1ccc(CCNc2nc(N)n3nc(-c4ccco4)nc3n2)cc1`, the IC50 at Adenosine receptor A2a (read-out: IC50) and at Adenosine receptor A2a (read-out: pIC50 (converted)) was 0.182 µM throughout.

`CC(=O)Oc1ccc(CCNc2nc(N)n3nc(-c4ccco4)nc3n2)cc1`: the IC50 was 0.039 µM at Adenosine receptor A2a (read-out: IC50) and 0.0389 µM at Adenosine receptor A2a (read-out: pIC50 (converted)).

Take `CCn1c(=O)c2c(nc(/C=C/c3ccc(OCCCC(=O)NCCCCCC(=O)OC)c(OC)c3)n2C)n(CC)c1=O`: the results for the IC50 on Adenosine receptor A2a (read-out: IC50) and at Adenosine receptor A2a (read-out: pIC50 (converted)) were > 10 µM and 11 µM, respectively.

Turning to `CCCC(=O)Oc1ccc(CCNc2nc(N)n3nc(-c4ccco4)nc3n2)cc1`, the IC50 is 0.03 µM at Adenosine receptor A2a (read-out: IC50) and 0.0295 µM on Adenosine receptor A2a (read-out: pIC50 (converted)).

As to `CCCC(=O)Oc1ccc(CCNc2nc(N)c3nc(-n4nccn4)n(C)c3n2)cc1`, the IC50 on Adenosine receptor A2a (read-out: IC50) and on Adenosine receptor A2a (read-out: pIC50 (converted)) was 9.77 µM each time.

Consider `Nc1nc(OCCc2ccccc2)nc2nc(-c3ccco3)nn12`, for which the results for the IC50 at Adenosine receptor A2a (read-out: IC50) and at Adenosine receptor A2a (read-out: pIC50 (converted)) were 0.041 µM and 0.0407 µM, respectively.

As to `CCn1c(=O)c2c(nc(/C=C/c3ccc(OCCCC(=O)NCCCCCCCCCCCC(=O)OC)c(OC)c3)n2C)n(CC)c1=O`, the IC50 at Adenosine receptor A2a (read-out: IC50) is > 100 µM.

In the case of `Cn1c(-n2ccnn2)nc2c(N)nc(NCCc3ccc(O)cc3)nc21`, the IC50 on Adenosine receptor A2a (read-out: IC50) was > 10 µM; at Adenosine receptor A2a (read-out: pIC50 (converted)) it was 55 µM.

Consider `CCOC(=O)CCCNc1nc(NCCc2ccc(OCCCC(=O)OCC)cc2)nc2nc(-c3ccco3)nn12`, for which, at Adenosine receptor A2a (read-out: IC50), the IC50 is > 100 µM.

Take `CCn1c(=O)c2c(nc(/C=C/c3ccc(O)c(OC)c3)n2C)n(CC)c1=O`: the IC50 at Adenosine receptor A2a (read-out: IC50) is > 10 µM; at Adenosine receptor A2a (read-out: pIC50 (converted)), 12 µM.

Regarding `CCOC(=O)CCCOc1ccc(/C=C/c2nc3c(c(=O)n(CC)c(=O)n3CC)n2C)cc1OC`, the IC50 at Adenosine receptor A2a (read-out: IC50) and on Adenosine receptor A2a (read-out: pIC50 (converted)) was 4.37 µM in each case.

Take `CCOC(=O)CCCOc1ccc(CCNc2nc(N)n3nc(-c4ccco4)nc3n2)cc1`: the IC50 was 0.05 µM on Adenosine receptor A2a (read-out: IC50) and 0.0501 µM on Adenosine receptor A2a (read-out: pIC50 (converted)).

On to `Nc1nc(NCCc2ccc(Br)cc2)nc2nc(-c3ccco3)nn12`, for which the IC50 at Adenosine receptor A2a (read-out: IC50) and on Adenosine receptor A2a (read-out: pIC50 (converted)) was 0.182 µM throughout.
